These are literature values, as cited in PMC6234229, “The role of loops B and C in determining the potentiation of GABAA receptors by midazolam” (Pharmacology Research & Perspectives, 2018).

The structures appear in SMILES notation.

The subject of one data set is α3β1γ2 receptors. The arrangement: method as in PMID 1646944, PMID 8381510. Particulars: cited from earlier work.
The subject of data set [1] is α6‐containing GABAA receptors. Particulars: cited from earlier work.

For `CN1C(=O)CN=C(c2ccccc2F)c2cc([N+](=O)[O-])ccc21` [flunitrazepam], the “potentiation of α3β1γ2 vs α1β1γ2 receptors” value with α3β1γ2 receptors is “potentiated α3β1γ2 receptors more than α1β1γ2 receptors”.
With `CN1C(=O)CN=C(c2ccccc2)c2cc(Cl)ccc21` [diazepam], the “potentiation of α3β1γ2 vs α1β1γ2 receptors” value in the data set on α3β1γ2 receptors is on record as “potentiated α3β1γ2 receptors more than α1β1γ2 receptors”.
In the case of `CC#CCOC(=O)c1c(C)nc2sc3c(c2c1N)CCC(O)C3` (stereo not drawn) [SB‐205384], in data set [1], the “potentiation of α6‐ vs α3‐containing GABAA receptors” value is on record as “potentiate α6‐containing GABAA receptors even more strongly than α3”.
